Data: patent US20240285808A1, “MOLECULAR PROBES FOR IN VIVO DETECTION OF ALDEHYDES” (The General Hospital Corporation, priority 2021, published 2024)
Where “and” joins values, the source holds several entries; their conditions need not be identical. Equal entries are not always repeated.

What was measured:
[1] = Relaxivity measurements in PBS; type: physicochemical; conditions: 1.4 T, 37° C.
[2] = target: bovine serum albumin (BSA) (Bos taurus, UniProt P02769); assay: Relaxivity measurements with BSA; type: binding; conditions: 1.4 T, 37° C., BSA 10 mg/mL
Chain of bovine serum albumin (BSA) (P02769 25-607): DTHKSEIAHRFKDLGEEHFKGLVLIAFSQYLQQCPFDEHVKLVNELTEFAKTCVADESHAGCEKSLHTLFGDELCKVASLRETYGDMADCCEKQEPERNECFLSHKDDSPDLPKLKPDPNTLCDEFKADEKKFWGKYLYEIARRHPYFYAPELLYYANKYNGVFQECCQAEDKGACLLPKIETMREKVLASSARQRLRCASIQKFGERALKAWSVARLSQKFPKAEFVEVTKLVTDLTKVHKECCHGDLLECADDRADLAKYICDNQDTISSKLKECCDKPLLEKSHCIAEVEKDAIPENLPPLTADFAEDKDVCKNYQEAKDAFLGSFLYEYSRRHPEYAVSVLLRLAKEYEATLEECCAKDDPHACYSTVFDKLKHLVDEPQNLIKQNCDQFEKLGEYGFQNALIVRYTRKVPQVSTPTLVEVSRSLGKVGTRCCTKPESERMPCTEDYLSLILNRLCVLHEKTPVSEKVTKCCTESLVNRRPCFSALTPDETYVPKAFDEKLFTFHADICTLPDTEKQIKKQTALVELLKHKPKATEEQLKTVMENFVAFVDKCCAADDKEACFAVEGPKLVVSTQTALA

[3] = target: T1, BSA-ALD (oxidized bovine serum albumin containing allysine aldehyde groups) (Bos taurus, UniProt P02769); assay: Relaxivity measurements with BSA-Ald; type: binding; conditions: for r1, +BSA-Ald / r1, Bound to BSA-Ald: 1.4 T; for r1, +BSA-Ald / r1, Bound to BSA-Ald / increase of r1 in BSA^Ald compared to PBS value: 37° C.; for r1, +BSA-Ald: BSA-Ald 10 mg/mL; for r1, Bound to BSA-Ald: protein-bound species after NaBH3CN and ultrafiltration; for increase of r1 in BSA^Ald compared to PBS value: 1.41 T
T1 construct: made in house; host or cells: no expression host: BSA oxidised chemically with sodium ascorbate, ferric chloride and H2O2, then desalted on PD-10
T1 sequence (P02769 25-607): as above

Row | SMILES | r1, PBS [1] [mM⁻¹ s⁻¹] | r1, +BSA [2] | fold higher relaxivity than Gd-CHyd [3] [fold] | higher protein-bound relaxivity than monobinder Gd-CHyd [3] [%] | r1, +BSA-Ald [3] | r1, Bound to BSA-Ald [3] [mM⁻¹ s⁻¹] | increase of r1 in BSA^Ald compared to PBS value [3] [%] | turn-on in relaxivity upon binding to allysine (BSA-Ald bound vs unbound) [3] | turn on in relaxivity ([3]; 1.4T) [%]
1 | NN1CCN(C(=O)CCC(C(=O)[O-])N2CCN(CC(=O)[O-])CCN(CC(=O)[O-])CCN(C(CCC(=O)N3CCN(N)CC3)C(=O)[O-])CC2)CC1.[Gd+3] (stereo not drawn) [Gd-9, cis-1,4-Gd-(CHyd)2] | 6.6 | 6.6 mM⁻¹ s⁻¹ and 6.5 mM⁻¹ s⁻¹ | 2.3 | 50 | 11.7 mM⁻¹ s⁻¹ and 11.2 mM⁻¹ s⁻¹ | 17.7 | 77 |  | 
2 | NN1CCN(C(=O)CCC(C(=O)[O-])N2CCN(CC(=O)[O-])CCN(C(CCC(=O)N3CCN(N)CC3)C(=O)[O-])CCN(CC(=O)[O-])CC2)CC1.[Gd+3] (stereo not drawn) [Gd-10, trans-1,7-Gd-(CHyd)2] | 6.6 | 6.6 mM⁻¹ s⁻¹ |  |  | 9.0 mM⁻¹ s⁻¹ | 18.7 | 36 |  | 
3 | NNC(CCC(=O)NCCCN1CCN(CC(=O)[O-])Cc2cccc(n2)CN(CC(=O)[O-])CC1)C(=O)O.[Mn+2] (stereo not drawn) [Mn-15] | 3.1 | 3.6 mM⁻¹ s⁻¹ |  |  | 5.9 mM⁻¹ s⁻¹ | 12.7 | 90 | 4 fold and ~3 fold | 270
4 | NOC(CCC(=O)NCCCN1CCN(CC(=O)[O-])Cc2cccc(n2)CN(CC(=O)[O-])CC1)C(=O)O.[Mn+2] (stereo not drawn) [Mn-16] | 3.1 | 3.4 mM⁻¹ s⁻¹ |  |  | 7.7 mM⁻¹ s⁻¹ | 12.7 |  | 4 fold | 
5 | NNCC(=O)NCCCN1CCN(CC(=O)[O-])Cc2cccc(n2)CN(CC(=O)[O-])CC1.[Mn+2] [Mn-17] | 3.0 | 3.5 mM⁻¹ s⁻¹ |  |  | 5.6 mM⁻¹ s⁻¹ | 11.4 | 90 | 4 fold and ~3 fold | 
6 | CN(C)C(CCC(=O)NCCCN1CCN(CC(=O)[O-])Cc2cccc(n2)CN(CC(=O)[O-])CC1)C(=O)O.[Mn+2] (stereo not drawn) [Mn-18] | 3.1 | 3.5 mM⁻¹ s⁻¹ |  |  | 3.6 mM⁻¹ s⁻¹ |  |  |  | 
